Series [1] can be described thus: Thermal stability relative to Form C. It is filed as physicochemical. The procedure:
As used herein, the term “DSC” refers to differential scanning calorimetry. Unless otherwise noted, DSC data disclosed herein were obtained using a TA Instruments 2920 instrument. Samples were prepared in crimped aluminum pans and kept under a flow of nitrogen during analysis. The heating rate was 10° C./minute.
As used herein, the term “TGA” refers to thermogravimetric analysis. Unless otherwise noted, TGA data disclosed herein were obtained using TA Instruments 2050 instrument. Samples were kept under a flow of nitrogen during analysis. The heating rate was 10° C./minute.

Series [2] in a line: Competitive slurry experiment / relative thermodynamic stability. The conditions noted are these: for relative thermodynamic stability, rank order: from Examples 10A, 11 and 12; for thermodynamic stability relative to other forms (in words): slurry experiments (THF overnight; acetone 7 days), Examples 10A, 11, 12. It is filed as physicochemical. The procedure:
To a mixture of 161.3 mg of crystalline tacedinaline Forms B and D, was added 2 mL of acetone. The resulting slurry was stirred at ambient temperature for 7 days and filtered to give white solid.
A slurry containing 25.8 mg tacedinaline Form A, 25.8 mg of a mixture of tacedinaline Forms B and D, a few milligrams of tacedinaline Form B, and 0.5 mL of tetrahydrofuran (THF) was stirred overnight and filtered to give 38.6 mg of a white solid. The white solid was analyzed by XRPD and determined to be tacedinaline Form A.

Series [3] is described as follows: Accelerated stability studies, 40° C. and 75% relative humidity, XRPD. It is filed as physicochemical. As for the experimental part:
Accelerated stability studies were performed on samples of crystalline tacedinaline Forms A, B, C, and a mixture of Forms B and D, under conditions of 40° C. and 75% relative humidity. For the studies on Form A, samples were taken at 8 days, 15 days, one month, 10 weeks, and 8 months. For the studies on Forms B, C, and a mixture of Forms B and D, samples were taken at 2, 4, 6, 8, and 10 weeks.

Series [4] is described as follows: Solubility study of crystalline forms in water (slurry, UV). It is filed as physicochemical. The note with it: for Solubility: slurry stirred 24 hours at ambient temperature (23° C.), UV. As for the experimental part: Analysis of the relative solubilities of crystalline tacedinaline Forms A, B, and D was performed as follows.
The starting material was Form B. The only peak in the spectrum, at approximately 267 nm, was used. The UV parameters were: scan range: 190-800 nm; 480 nm/min; 1 cm cuvette.
Each sample was placed in water to give a slurry. The slurries were stirred at ambient temperature for 24 hours. The temperature in the laboratory was monitored and found to be steady at 23° C. After 24 hours, the vials containing the slurries were centrifuged for about 5 minutes. The mother liquors were decanted and filtered through 0.2 micron filters, then diluted appropriately and analyzed by UV. Solids were dried under dry air purges and analyzed by XRPD.

Series [5] can be described thus: Bioavailability / pharmacokinetics study, single IV and PO administration. It is filed as in vivo, Sprague-Dawley rats. The note with it: for AUC(0-inf) / AUC(0-t) / Cmax / clearance / half-life / MRT inf / Vd / bioavailability / Tmax: Sprague-Dawley, rat, plasma; for AUC(0-inf) / AUC(0-t) / Cmax / clearance / half-life / MRT inf / Vd / bioavailability: 1 mg/kg; for MRT inf: read-out: MRT(0-∞); for Vd: read-out: Vz. The procedure: A study was performed to determine the pharmacokinetics parameters and bioavailability of Tacedinaline Form A in Sprague-Dawley Rats, following a single intravenous injection (IV) and oral administration (PO). Formulation: IV formulation: The test article was dissolved in 10% DMSO/45% PEG400/45% Saline to yield a final concentration of 0.5 mg/ml for intravenous injection. PO formulation: The test article was suspended in 0.5% methylcellulose in water to yield a final concentration of 0.2 mg/ml for oral administration. Collection Intervals: Three rats in each group were used for blood collection at each time point: Groups 1 and 2: Pre-dose and post-dose (5 min, 15 min, 30 min, 1 hour, 2 hours, 4 hours, 6 hours, 8 hours, and 24 hours). Analysis Procedure: The PK blood samples were centrifuged at approximately 8000 rpm for 6 minutes at 2-8° C. and the resulting plasma separated and stored frozen at approximately −80° C. (following separation, the plasma may be initially placed on ice prior to being stored in the −80° C. freezer). All the plasma samples were labeled with detailed information such as study number, animal number, matrix, time points of collection and date of collection. Pharmacokinetics Analysis: A standard set of parameters including Area Under the Curve (AUC(0-t) and AUC(0-∞)), elimination half-life (T1/2), maximum plasma concentration (Cmax), time to reach maximum plasma concentration (Tmax), clearance (CL), and volume of distribution (VZ) was calculated using noncompartmental analysis modules in FDA certified pharmacokinetic program WinNonlin Professional v6.1 (Pharsight, USA). Further, the bioavailability was estimated using the following formula: […]

The text below walks through data of patent US8691875B2, “Solid forms of tacedinaline” (Broad Institute, Inc., priority 2011, dated 2014).

Converted amounts (≈) assume the structure as drawn. “Also recorded” adds a separate entry of the source. Where two headings read alike, the source gives them in different places.

On to `CC(=O)Nc1ccc(C(=O)Nc2ccccc2N)cc1` [Form D, 4-(acetylamino)-N-(2-aminophenyl)benzamide], for which, in series [1], the “thermal stability relative to Form C (in words)” value is on record as “improved thermal stability relative to tacedinaline Form C”. Also, in series [2], the “relative thermodynamic stability, rank order” value is given as “A>D>B” and the “thermodynamic stability relative to other forms (in words)” value was “more thermodynamically stable under certain conditions relative to Form B”.

What is called Solubility is the concentration that dissolves in the medium under given conditions. A high value points to much dissolved substance. Take `CC(=O)Nc1ccc(C(=O)Nc2ccccc2N)cc1` [Form B, 4-(acetylamino)-N-(2-aminophenyl)benzamide]: the “stability of the solid form (in words)” value in series [3] is reported as “more stable than Form C”. The “thermal stability relative to Form C (in words)” value in series [1] is “improved thermal stability relative to tacedinaline Form C”. In addition, in series [4], the “solubility in water compared with other forms (in words)” value is “superior to that of Forms A and D”; the Solubility was 42.6 µg/mL (≈ 158 µM). In series [2], the “relative thermodynamic stability, rank order” value was “A>D>B”.

`CC(=O)Nc1ccc(C(=O)Nc2ccccc2N)cc1` [B + D, 4-acetamido-N-(2-aminophenyl)benzamide]: in series [3] (listed as mixture of Form B and Form D), the “stability of the solid form (in words)” value is “more stable than Form C”. Further, the “XRPD Result” value in series [3] (pull time 2 weeks), in series [3] (pull time 4 weeks), in series [3] (pull time 6 weeks) and in series [3] (pull time 8 weeks) was “B + D” throughout. For the same molecule, the Solubility in series [4] is 20.8 µg/mL.

As a reminder, the AUC(0-inf) is the area under the concentration-time curve extrapolated to infinity. A high value points to more exposure. As a reminder, the AUC(0-t) is the area under the concentration-time curve up to a stated or last time point. A higher AUC(0-t) goes with more exposure. In general, Cmax refers to the highest concentration seen after dosing. As a reminder, the half-life is how long it takes for the measured level to halve. A higher half-life goes with slow decline. As a reminder, the Tmax is the time from dosing to the highest level. `CC(=O)Nc1ccc(C(=O)Nc2ccccc2N)cc1` [Form A, 4-(acetylamino)-N-(2-aminophenyl)benzamide]: the “stability of the solid form (in words)” value in series [3] was “stable, as no conversion was seen”. In addition, in series [1], the “thermal stability relative to Form C (in words)” value was “improved thermal stability relative to tacedinaline Form C”. Further, the Solubility in series [4] was 17.6 µg/mL (≈ 65.4 µM). The “relative thermodynamic stability, rank order” value in series [2] is “A>D>B”. In addition, in series [2], the “thermodynamic stability relative to other forms (in words)” value was “more thermodynamically stable, relative to tacedinaline Forms B, and D; also recorded: more thermodynamically stable under certain conditions relative to Forms B and D”. Moreover, the CL_F in series [5] (PO 1 mg/kg, Animal No. 1) amounted to 4.5 mL/min/kg; in series [5] (PO 1 mg/kg, Animal No. 2), 4.17 mL/min/kg; in series [5] (PO 1 mg/kg, Mean), 4.33 mL/min/kg. For the same molecule, the Vz_F in series [5] (PO 1 mg/kg, Animal No. 1) is recorded as 1.47 L/kg; in series [5] (PO 1 mg/kg, Animal No. 2) it was 1.04 L/kg; in series [5] (PO 1 mg/kg, Mean), 1.25 L/kg. In addition, the AUC(0-inf) amounted to 3100 ng·h/mL in series [5] (iv, IV 1 mg/kg, Animal No. 1); 3010 ng·h/mL in series [5] (iv, IV 1 mg/kg, Animal No. 2); 3060 ng·h/mL in series [5] (iv, IV 1 mg/kg, Mean); 3730 ng·h/mL in series [5] (po, PO 1 mg/kg, Animal No. 1); 4030 ng·h/mL in series [5] (po, PO 1 mg/kg, Animal No. 2); 3880 ng·h/mL in series [5] (po, PO 1 mg/kg, Mean). The AUC(0-t) in series [5] (iv, IV 1 mg/kg, Animal No. 1) was determined as 3090 ng·h/mL; in series [5] (iv, IV 1 mg/kg, Animal No. 2), 3010 ng·h/mL; in series [5] (iv, IV 1 mg/kg, Mean) it was 3050 ng·h/mL; in series [5] (po, PO 1 mg/kg, Animal No. 1), 3700 ng·h/mL; in series [5] (po, PO 1 mg/kg, Animal No. 2), 4020 ng·h/mL; in series [5] (po, PO 1 mg/kg, Mean), 3860 ng·h/mL. Besides, the Cmax was 799 ng/mL in series [5] (iv, IV 1 mg/kg, Animal No. 1); 715 ng/mL in series [5] (iv, IV 1 mg/kg, Animal No. 2); 757 ng/mL in series [5] (iv, IV 1 mg/kg, Mean); 687 ng/mL in series [5] (po, PO 1 mg/kg, Animal No. 1); 781 ng/mL in series [5] (po, PO 1 mg/kg, Animal No. 2); 734 ng/mL in series [5] (po, PO 1 mg/kg, Mean). Moreover, the clearance in series [5] (iv, IV 1 mg/kg, Animal No. 1) is 5.33 mL/min/kg; in series [5] (iv, IV 1 mg/kg, Animal No. 2), 5.5 mL/min/kg; in series [5] (iv, IV 1 mg/kg, Mean) it was 5.5 mL/min/kg. Further, the half-life in series [5] (iv, IV 1 mg/kg, Animal No. 1) is 2.81 h; in series [5] (iv, IV 1 mg/kg, Animal No. 2), 2.82 h; in series [5] (iv, IV 1 mg/kg, Mean) it was 2.81 h; in series [5] (po, PO 1 mg/kg, Animal No. 1) it was 3.81 h; in series [5] (po, PO 1 mg/kg, Animal No. 2), 2.9 h; in series [5] (po, PO 1 mg/kg, Mean), 3.35 h. Besides, the MRT inf is 3.46 h in series [5] (iv, IV 1 mg/kg, Animal No. 1); 3.57 h in series [5] (iv, IV 1 mg/kg, Animal No. 2); 3.52 h in series [5] (iv, IV 1 mg/kg, Mean); 4.6 h in series [5] (po, PO 1 mg/kg, Animal No. 1); 4.06 h in series [5] (po, PO 1 mg/kg, Animal No. 2); 4.33 h in series [5] (po, PO 1 mg/kg, Mean). The Vd stood at 1.31 L/kg in series [5] (iv, IV 1 mg/kg, Animal No. 1); 1.35 L/kg in series [5] (iv, IV 1 mg/kg, Animal No. 2); 1.33 L/kg in series [5] (iv, IV 1 mg/kg, Mean). For the same molecule, the bioavailability came out at 100% in series [5] (oral, rats, read-out: bioavailability); 122% in series [5] (po, PO 1 mg/kg, Animal No. 1, read-out: F (Bioavailability)); 132% in series [5] (po, PO 1 mg/kg, Animal No. 2, read-out: F (Bioavailability)); 127% in series [5] (po, PO 1 mg/kg, Mean, read-out: F (Bioavailability)). The Tmax in series [5] (IV 1 mg/kg, Animal No. 1) came out at 0.5 h; in series [5] (PO 1 mg/kg, Animal No. 1) it was 2 h.

With `CC(=O)Nc1ccc(C(=O)Nc2ccccc2N)cc1` [Form C, 4-(acetylamino)-N-(2-aminophenyl)benzamide, reference compound], the “stability of the solid form (in words)” value in series [3] is on record as “converted to either Form D, or a mixture of Form D with some amount of Form A present”. The “XRPD Result” value in series [3] (pull time 2 weeks), in series [3] (pull time 6 weeks) and in series [3] (pull time 8 weeks) was “D + A” each time.
